# Laboratory results published in patent US7244738B2, “Arylamine-substituted quinazolinone compounds useful as alpha 1A/B adrenergic receptor antagonists” (Roche Palo Alto LLC, priority 2003, dated 2007).
# Structures can show the parent of a compound that is named as a salt.
row,melting point,Structure (SMILES)
1,172.9 to 175.9 °C,"COc1cc2[nH]c(N(C)Cc3cccc(N4CCC(O)C4=O)c3)nc(=O)c2c(OC)c1OC (centres unmarked) (as salt: HCl) [Example 22, 2-{[3-(3-Hydroxy-2-oxo-pyrrolidin-1-yl)-benzyl]-methyl-amino}-5,6,7-trimethoxy-1H-quinazolin-4-one]"
2,265 to 268 °C,"COCCNCc1ccc(CN(C)c2nc(=O)c3c(C)c(OC)c(OC)cc3[nH]2)cc1 (as salt: HCl) [Example 36, 6,7-Dimethoxy-2-({4-[(2-methoxy-ethylamino)-methyl]-benzyl}-methyl-amino)-5-methyl-1H-quinazolin-4-one]"
3,248.2 to 249.4 °C,"COc1cc2[nH]c(N(C)Cc3ccc(CN)cc3)nc(=O)c2c(C)c1OC (as salt: HCl) [Example 42, 2-[(4-Aminomethyl-benzyl)-methyl-amino]-6,7-dimethoxy-5-methyl-1H-quinazolin-4-one]"
4,191 to 192.2 °C,"COc1cc2[nH]c(N(C)Cc3ccc(OCCCN(C)C)cc3)nc(=O)c2c(C)c1OC (as salt: HCl) [Example 44, 2-{[4-(3-Dimethylamino-propoxy)-benzyl]-methyl-amino}-6,7-dimethoxy-5-methyl-1H-quinazolin-4-one]"
5,264 to 268 °C,"CNCc1ccc(CN(C)c2nc(=O)c3c(C)c(OC)c(OC)cc3[nH]2)cc1 (as salt: HCl) [Example 55, 6,7-Dimethoxy-5-methyl-2-[methyl-(4-methylaminomethyl-benzyl)-amino]-1H-quinazolin-4-one]"
6,242 to 245 °C,"COc1cc2[nH]c(N(C)Cc3cccc(/N=C/N(C)C)c3)nc(=O)c2cc1OC (as salt: HCl) [Example 86, N′-(3-{[(6,7-Dimethoxy-4-oxo-1,4-dihydro-quinazolin-2-yl)-methyl-amino]-methyl}-phenyl)-N,N-dimethyl-formamidine]"
7,> 300 °C (dec.),"COc1cc2[nH]c(N(C)Cc3ccccc3N)nc(=O)c2c(OC)c1OC (as salt: HCl) [Example 104, 2-[(2-Amino-benzyl)-methyl-amino]-5,6,7-trimethoxy-1H-quinazolin-4-one]"
8,169 to 171.9 °C,"COc1cc2[nH]c(N(C)Cc3cccc(CN(C)CCO)c3)nc(=O)c2c(OC)c1OC (as salt: HCl) [Example 116, 2-[(3-{[(2-Hydroxy-ethyl)-methyl-amino]-methyl}-benzyl)-methyl-amino]-5,6,7-trimethoxy-1H-quinazolin-4-one]"
9,175 to 195 °C,"COc1cc2[nH]c(N(C)Cc3cccc(CC4CCN(C)CC4)c3)nc(=O)c2c(OC)c1OC (as salt: HCl) [Example 127, 5,6,7-Trimethoxy-2-{methyl-[3-(1-methyl-piperidin-4-ylmethyl)-benzyl]-amino}-1H-quinazolin-4-one]"
10,166.5 to 172.9 °C,"COc1cc2[nH]c(N(C)Cc3cccc(NC(C)=O)c3)nc(=O)c2c(OC)c1OC (as salt: HCl) [Example 174, N-(3-{[Methyl-(5,6,7-trimethoxy-4-oxo-1,4-dihydro-quinazolin-2-yl)-amino]-methyl}-phenyl)-acetamide]"
11,156 to 157.2 °C,COc1cc2[nH]c(N(C)Cc3cccc(N(C)CCCO)c3)nc(=O)c2c(OC)c1OC (as salt: HCl) [Example 187]
12,207 to 209.1 °C,"COCCCNc1cccc(CN(C)c2nc(=O)c3c(OC)c(OC)c(OC)cc3[nH]2)c1 (as salt: HCl) [Example 188, 5,6,7-Trimethoxzy-2-{[3-(3-methoxy-propylamino)-benzyl]-methyl-amino}-1H-quinazolin-4-one]"
13,166.7 to 168.1 °C,"COCCCN(C)c1cccc(CN(C)c2nc(=O)c3c(OC)c(OC)c(OC)cc3[nH]2)c1 (as salt: HCl) [Example 189, 5,6,7-Trimethoxy-2-({3-[(3-methoxy-propyl)-methyl-amino]-benzyl}-methyl-amino)-1H-quinazolin-4-one]"
14,279.9 to 281.5 °C,"COc1cc2[nH]c(N(C)Cc3cccc(C#N)c3)nc(=O)c2c(C)c1OC (as salt: TFA) [Example 96, 3-{[(6,7-Dimethoxy-5-methyl-4-oxo-1,4-dihydro-quinazolin-2-yl)-methyl-amino]-methyl}-benzonitrile]"
15,106.1 to 116.6 °C,"COc1cc2[nH]c(N(C)Cc3cccc(C4=NCCN4CCO)c3)nc(=O)c2c(OC)c1OC (as salt: TFA) [Example 245, 2-({3-[1-(2-Hydroxy-ethy)-4,5-dihydro-1H-imidazol-2-yl]-benzyl}-methyl-amino)-5,6,7-trimethoxy-1H-quinazolin-4-one]"
16,162.9 to 164.5 °C,"COCCN(C)Cc1cccc(CN(C)c2nc(=O)c3c(OC)c(OC)c(OC)cc3[nH]2)c1 (as salt: hydrochloride) [Example 117, 5,6,7-Trimethoxy-2-[(3-{[(2-methoxy-ethyl)-methyl-amino]-methyl}-benzyl)-methyl-amino]-1H-quinazolin-4-one]"
17,212.5 to 219.9 °C,"CCc1c(OC)c(OC)cc2[nH]c(N(C)Cc3cccc(N=C4N(C)CCN4C)c3)nc(=O)c12 (as salt: salt) [Example 207, 2-{[3-(1,3-dimethyl-imidazolidin-2-ylideneamino)-benzyl]-methyl-amino}-5-ethyl-6,7-dimethoxy-1H-quinaolin-4-one]"
18,220 to 223 °C,"COc1cc2nc(N(C)Cc3cccc(N4CCCC4)c3)[nH]c(=O)c2cc1OC (as salt: salt) [Example A-1, 6,7-Dimethoxy-2-[methyl-(3-pyrrolidin-1-yl-benzyl)-amino]-1H-quinazolin-4-one]"
19,224 to 227.8 °C,"COc1cc2[nH]c(N(C)Cc3cccc(Oc4ncccn4)c3)nc(=O)c2c(C)c1OC (as salt: salt) [Example F-3, 6,7-Dimethoxy-5-methyl-2-{methyl-[3-(pyrimidin-2-yloxy)-benzyl]-amino}-1H-quinazolin-4-one]"
20,170.6 to 172.5 °C,"COc1cc2nc(N(C)Cc3cccc(/N=C(\C)N(C)C)c3)[nH]c(=O)c2c(C)c1OC (as salt: salt) [Example G-1, N′-(3-{[(6,7-Dimethoxy-5-methyl-4-oxo-1,4-dihydro-quinazolin-2-yl)-methyl-amino]-methyl}-phenyl)-N,N-dimethyl-acetamidine]"

# More lines, now with the values behind:
row,Structure (SMILES),melting point
1,COCC/C(=N\c1cccc(CN(C)c2nc(=O)c3c(OC)c(OC)c(OC)cc3[nH]2)c1)N(C)C.Cl,145 °C
2,COc1cc2[nH]c(N(C)Cc3ccc(CN4CCC(O)C4)cc3)nc(=O)c2c(C)c1OC (centres unmarked),166 to 169 °C
3,COc1cc2[nH]c(N(C)Cc3cccc(C4CCN(C)CC4)c3)nc(=O)c2c(OC)c1OC.Cl,181.5 to 189.4 °C
4,COc1cc2[nH]c(N(C)Cc3cccc(N4CCCC4)c3)nc(=O)c2cc1OC.Cl,220 to 223 °C
5,"COc1ccc(CN(C)c2nc(=O)c3c(OC)c(OC)c(OC)cc3[nH]2)cc1OCC(CO)CO (as salt: HCl) [Example 3, 2-{[3-(3-Hydroxy-2-hydroxymethyl-propoxy)-4-methoxy-benzyl]-methyl-amino}-5,6,7-trimethoxy-1H-quinazolin-4-one]",139.7 to 146.6 °C
6,"COc1cc2[nH]c(N(C)Cc3cccc(OCC(O)CO)c3)nc(=O)c2c(C)c1OC (centres unmarked) (as salt: HCl) [Example 7, 2-{[3-(2,3-Dihydroxy-propoxy)-benzyl]-methyl-amino}-6,7-dimethoxy-5-methyl-1H-quinazolin-4-one]",220 to 224 °C
7,"COc1cc2[nH]c(N(C)Cc3ccc(OCC(CO)CO)cc3)nc(=O)c2c(C)c1OC (as salt: HCl) [Example 15, 2-{[4-(3-Hydroxy-2-hydroxymethyl-propoxy)-benzyl]-methyl-amino}-6,7-dimethoxy-5-methyl-1H-quinazolin-4-one]",197.5 to 199 °C
8,"COc1cc2[nH]c(N(C)Cc3ccc(CN(C)CCC(F)(F)F)cc3)nc(=O)c2c(OC)c1OC [Example 1, 5,6,7-Trimethoxy-2-[methyl-(4-{[methyl-(3,3,3-trifluoro-propyl)-amino]-methyl}-benzyl)-amino]-1H-quinazolin-4-one]",97.8 to 101.9 °C
9,"COCC(O)COc1ccc(CN(C)c2nc(=O)c3c(OC)c(OC)c(OC)cc3[nH]2)cc1 (centres unmarked) [Example 2, 2-{[4-(2-Hydroxy-3-methoxy-propoxy)-benzyl]-methyl-amino}-5,6,7-trimethoxy-1H-quinazolin-4-one]",108.1 to 111.5 °C
10,"COc1cc2[nH]c(N(C)Cc3cccc(C(C)N(C)C(=O)N(C)C)c3)nc(=O)c2c(C)c1OC (centres unmarked) [Example 4, 1-[1-(3-{[(6,7-Dimethoxy-5-methyl-4-oxo-1,4-dihydro-quinazolin-2-yl)-methyl-amino]-methyl}-phenyl)-ethyl]-1,3,3-trimethyl-urea]",125.9 to 128 °C
11,COC(=O)N(C)C(C)c1cccc(CN(C)c2nc(=O)c3c(C)c(OC)c(OC)cc3[nH]2)c1 (centres unmarked) [Example 5],117.9 to 120.1 °C
12,"COc1ccc(CN(C)c2nc(=O)c3c(C)c(OC)c(OC)cc3[nH]2)cc1OCC(CO)CO [Example 6, 2-{[3-(3-Hydroxy-2-hydroxymethyl-propoxy)-4-methoxy-benzyl]-methyl-amino}-6,7-dimethoxy-5-methyl-1H-quinazolin-4-one]",210.8 to 215.4 °C
13,"COc1cc2[nH]c(N(C)Cc3cccc(N4C[C@@H](OC)CC4=O)c3)nc(=O)c2c(OC)c1OC [Example 8, 5,6,7-Trimethoxy-2-{[3-((S)-4-methoxy-2-oxo-pyrrolidin-1-yl)-benzyl]-methyl-amino}-1H-quinazolin-4-one]",142.5 to 147.4 °C
14,"COCCOC(=O)N(C)Cc1ccc(CN(C)c2nc(=O)c3c(C)c(OC)c(OC)cc3[nH]2)cc1 [Example 9, (4-{[(6,7-Dimethoxy-5-methyl-4-oxo-1,4-dihydro-quinazolin-2-yl)-methyl-amino]-methyl}-benzyl)-methyl-carbamic acid 2-methoxy-ethyl ester]",159.4 to 160.4 °C
15,"COc1cc2[nH]c(N(C)Cc3ccc(CN(C)S(C)(=O)=O)cc3)nc(=O)c2c(C)c1OC [Example 10, N-(4-{[(6,7-Dimethoxy-5-methyl-4-oxo-1,4-dihydro-quinazolin-2-yl)-methyl-amino]-methyl}-benzyl)-N-methyl-methanesulfonamide]",238 to 240 °C
